Source: EPA's ToxRefDB 2

How the values were obtained:
rat [1] = conditions: Developmental neurotoxicity study, long evans, Injection, Intraperitoneal, dose end: 66 PND, group: cannot be grouped
rat [2] = conditions: Developmental neurotoxicity study; long evans; Injection; Intraperitoneal; dose end: 21 PND; group: cannot be grouped; systemic / in life observation / body weight / offspring (pup) weight
rat [3] = conditions: Developmental neurotoxicity study, long evans, Injection, Intraperitoneal, dose end: 122 PND, group: cannot be grouped
rat [4] = conditions: Developmental neurotoxicity study; long evans; Injection; Intraperitoneal; dose end: 18 PND; group: cannot be grouped; systemic / pathology gross / brain / reduced size + systemic / pathology microscopic / brain / depletion cellular
rat [5] = conditions: Prenatal developmental toxicity study; wistar; Oral; Gavage/Intubation; dose end: 21 GD; group: developmental; systemic / in life observation / body weight / fetal weight + developmental / developmental landmark / anogenital distance (agd) / …
mouse [6] = conditions: Multigenerational reproductive toxicity study, cd1, Oral, Gavage/Intubation, dose end: 2 generation
rat [7] = conditions: Sub-acute repeat dose toxicity, sprague dawley, Oral, Gavage/Intubation, dose end: 10 day, group: systemic
mouse [8] = conditions: Subchronic oral toxicity in rodents, b6c3f1, Gavage/Intubation, dose end: 17 week, group: systemic
rat [9] = conditions: Sub-acute repeat dose toxicity, other, Inhalation, Whole-Body, dose end: 4 week, group: systemic
rat [10] = conditions: Combined chronic toxicity/carcinogenicity; fischer; Oral; Gavage/Intubation; dose end: 104 week; group: systemic; systemic / pathology microscopic / stomach / hyperplasia + systemic / pathology microscopic / clitoral gland / hyperplasia + systemic / …
mouse [11] = conditions: Combined chronic toxicity/carcinogenicity, b6c3f1, Oral, Gavage/Intubation, dose end: 104 week, group: systemic
rat [12] = conditions: Subchronic oral toxicity in rodents, sprague dawley, Water, dose end: 90 day, group: systemic
mouse [13] = conditions: Combined chronic toxicity/carcinogenicity; b6c3f1; Oral; Gavage/Intubation; dose end: 104 week; group: systemic; systemic / pathology microscopic / stomach / hyperkeratosis + systemic / pathology microscopic / stomach / hyperplasia + systemic / …
rat [14] = conditions: Subchronic inhalation toxicity, other, Whole-Body, dose end: 13 week, group: systemic
rat [15] = conditions: Subchronic inhalation toxicity, other, Whole-Body, dose end: 13 week, group: systemic; remark: listed apart in the source
rat [16] = conditions: Combined chronic toxicity/carcinogenicity, fischer, Oral, Gavage/Intubation, dose end: 104 week, group: systemic
rat [17] = conditions: Multigenerational reproductive toxicity study, other, Inhalation, Whole-Body, dose end: 1 generation
rat [18] = conditions: Subchronic oral toxicity in rodents, sprague dawley, Gavage/Intubation, dose end: 90 day, group: systemic
rat [19] = conditions: Subchronic oral toxicity in rodents, fischer, Gavage/Intubation, dose end: 17 week, group: systemic
rat [20] = conditions: Subchronic oral toxicity in rodents, fischer, Gavage/Intubation, dose end: 13 week, group: systemic
mouse [21] = conditions: Sub-acute repeat dose toxicity, b6c3f1, Oral, Gavage/Intubation, dose end: 14 day, group: systemic
mouse [22] = conditions: Subchronic oral toxicity in rodents, b6c3f1, Gavage/Intubation, dose end: 13 week, group: systemic
[23] = systemic / clinical chemistry / [other] / [other] + systemic / clinical chemistry / protein / protein + systemic / in life observation / …
[24] = systemic / clinical chemistry / [other] / [other] + systemic / clinical chemistry / protein / protein + systemic / organ weight / brain / …
[25] = systemic / in life observation / body weight / offspring (pup) weight + systemic / in life observation / clinical signs / [other] + systemic…
[26] = systemic / organ weight / brain / nos
[27] = group: offspring, systemic / in life observation / body weight / offspring (pup) weight + systemic / in life observation / water consumption / water …
[28] = group: offspring, systemic / organ weight / kidney / relative to body weight + systemic / organ weight / liver / relative to body weight
[29] = group: parental, systemic / in life observation / body weight / body weight + systemic / in life observation / water consumption / water consumption + …
[30] = group: reproductive, reproductive / reproductive performance / estrous cycle / length
[31] = group: reproductive, reproductive / reproductive performance / fertility / fertility + reproductive / reproductive performance / gestational length / gestational…
[32] = systemic / clinical chemistry / urea nitrogen / urea nitrogen + systemic / organ weight / kidney / relative to body weight
[33] = systemic / clinical chemistry / urea nitrogen / urea nitrogen + systemic / organ weight / kidney / relative to body weight + systemic / …
[34] = systemic / pathology microscopic / lung / regeneration + systemic / pathology microscopic / stomach / acanthosis + systemic / pathology …
[35] = systemic / in life observation / body weight / body weight + systemic / in life observation / body weight / body weight gain + systemic / in…
[36] = systemic / in life observation / body weight / body weight gain + systemic / organ weight / liver / absolute + systemic / organ weight / …
[37] = systemic / pathology microscopic / harderian gland / adenoma + systemic / pathology microscopic / liver / hepatocellular adenoma + systemic…
[38] = systemic / pathology microscopic / stomach / squamous cell carcinoma + systemic / pathology microscopic / stomach / squamous cell papilloma…
[39] = systemic / clinical chemistry / aminopyrine-n-demethylase / aminopyrine-n-demethylase + systemic / clinical chemistry / cholesterol / …
[40] = systemic / hematology / platelet / platelet + systemic / in life observation / clinical signs / lacrimation
[41] = systemic / in life observation / clinical signs / lacrimation
[42] = systemic / hematology / leukocyte (wbc) count differential / leukocyte (wbc) + systemic / in life observation / body weight / body weight + …
[43] = systemic / pathology microscopic / lung / hyperplasia + systemic / pathology microscopic / spleen / hematopoietic cell proliferation + …
[44] = systemic / pathology microscopic / clitoral gland / adenoma + systemic / pathology microscopic / clitoral gland / adenoma/carcinoma combined…
[45] = systemic / pathology microscopic / stomach / squamous cell papilloma + systemic / pathology microscopic / pancreas / hyperplasia + systemic…
[46] = group: parental, systemic / in life observation / body weight / body weight + systemic / in life observation / body weight / body weight gain
[47] = group: reproductive, reproductive / reproductive performance / mating / mating
[48] = systemic / pathology microscopic / heart / inflammation + systemic / pathology microscopic / heart / necrosis
[49] = systemic / pathology microscopic / heart / inflammation + systemic / pathology microscopic / heart / necrosis + systemic / clinical …
[50] = systemic / clinical chemistry / [other] / [other] + systemic / hematology / erythrocyte (rbc) count differential / erythrocyte (rbc) + …
[51] = systemic / pathology microscopic / stomach / hyperplasia
[52] = systemic / organ weight / stomach / nos + systemic / pathology microscopic / stomach / hyperplasia + systemic / pathology microscopic / …
[53] = systemic / pathology microscopic / stomach / hyperplasia + systemic / organ weight / stomach / absolute + systemic / organ weight / stomach…

With `[CH3][Sn+]([CH3])[CH3].[OH-]` [Trimethyltin hydroxide] the LOAEL (rat [1]; [23]) was greater than 6 mg/kg/day, the NOAEL (rat [1]; [23]) was no less than 6 mg/kg/day and the LEL (rat [1]; [24]) was 5 mg/kg/day. For the same compound, the NEL (rat [1]; [24]) was less than 5 mg/kg/day, the LEL (rat [2]) was 6 mg/kg/day and the LOAEL (rat [2]) was greater than 6 mg/kg/day. For the same compound, the NEL (rat [2]) was 5 mg/kg/day, the NOAEL (rat [2]) was no less than 6 mg/kg/day and the LOAEL (rat [3]; [25]) was greater than 6 mg/kg/day. For the same compound, the NOAEL (rat [3]; [25]) was no less than 6 mg/kg/day, the LEL (rat [3]; [26]) was 4 mg/kg/day and the NEL (rat [3]; [26]) was less than 4 mg/kg/day. For the same compound, the LEL (rat [4]) was 6 mg/kg/day, the LOAEL (rat [4]) was greater than 6 mg/kg/day and the NEL (rat [4]) was less than 6 mg/kg/day. The NOAEL (rat [4]) was no less than 6 mg/kg/day.
For `CC(C)COC(=O)c1ccccc1C(=O)OCC(C)C` [Diisobutyl phthalate], the LEL (rat [5]) was 600 mg/kg/day, the LOAEL (rat [5]) was greater than 600 mg/kg/day and the NEL (rat [5]) was less than 600 mg/kg/day. For the same compound, the NOAEL (rat [5]) was no less than 600 mg/kg/day.
`ClCC(Cl)CCl` [1,2,3-Trichloropropane] was tested, and the LOAEL (mouse [6]; [27]) was greater than 120 mg/kg/day, the NOAEL (mouse [6]; [27]) was no less than 120 mg/kg/day and the LEL (mouse [6]; [28]) was 30 mg/kg/day. The NEL (mouse [6]; [28]) was less than 30 mg/kg/day, the LEL (mouse [6]; [29]) was 120 mg/kg/day and the LOAEL (mouse [6]; [29]) was greater than 120 mg/kg/day. For the same compound, the NEL (mouse [6]; [29]) was 60 mg/kg/day, the NOAEL (mouse [6]; [29]) was no less than 120 mg/kg/day and the LEL (mouse [6]; [30]) was 30 mg/kg/day. It also gave an NEL (mouse [6]; [30]) of less than 30 mg/kg/day, an LOAEL (mouse [6]; [31]) greater than 120 mg/kg/day and an NOAEL (mouse [6]; [31]) of no less than 120 mg/kg/day. The LEL (rat [7]; [32]) was 0.00147 mg/kg/day, the NEL (rat [7]; [32]) was less than 0.00147 mg/kg/day and the LOAEL (rat [7]; [33]) was greater than 0.118 mg/kg/day. The NOAEL (rat [7]; [33]) was no less than 0.118 mg/kg/day, the LEL (mouse [8]; systemic / organ weight / liver / absolute) was 32 mg/kg/day and the NEL (mouse [8]; systemic / organ weight / liver / absolute + systemic / in life observation / body weight / body weight gain + systemic / in life …) was 16 mg/kg/day. The LOAEL (mouse [8]; [34]) was 63 mg/kg/day, the NOAEL (mouse [8]; [34]) was 32 mg/kg/day and the LOAEL (rat [9]; [35]) was greater than 900 ppm. The NOAEL (rat [9]; [35]) was no less than 900 ppm, the LEL (rat [9]; [36]) was 100 ppm and the NEL (rat [9]; [36]) was less than 100 ppm. For the same compound, the LEL (rat [10]) was 3 mg/kg/day, the LOAEL (rat [10]) was 3 mg/kg/day and the NEL (rat [10]) was less than 3 mg/kg/day. It also gave an NOAEL (rat [10]) of less than 3 mg/kg/day, an LOAEL (mouse [11]; [37]) greater than 60 mg/kg/day and an NOAEL (mouse [11]; [37]) of no less than 60 mg/kg/day. It also gave an LEL (mouse [11]; [38]) of 6 mg/kg/day, an NEL (mouse [11]; [38]) of less than 6 mg/kg/day and an LOAEL (rat [12]; [39]) greater than 50 mg/kg/day. It also gave an NEL (rat [12]; [39]) of 0.5 mg/kg/day, an NOAEL (rat [12]; [39]) of no less than 50 mg/kg/day and an LEL (rat [12]; systemic / in life observation / water consumption / water consumption + systemic / organ weight / kidney / relative to body weight + …) of 5 mg/kg/day. The LEL (mouse [13]) was 6 mg/kg/day, the LOAEL (mouse [13]) was 6 mg/kg/day and the NEL (mouse [13]) was less than 6 mg/kg/day. It also gave an NOAEL (mouse [13]) of less than 6 mg/kg/day, an LOAEL (rat [14]; [40]) greater than 1.5 ppm and an NOAEL (rat [14]; [40]) of no less than 1.5 ppm. For the same compound, the LEL (rat [14]; [41]) was 0.5 ppm, the NEL (rat [14]; [41]) was less than 0.5 ppm and the LOAEL (rat [15]; [42]) was greater than 50 ppm. For the same compound, the NOAEL (rat [15]; [42]) was no less than 50 ppm, the LEL (rat [15]; [43]) was 5 ppm and the NEL (rat [15]; [43]) was less than 5 ppm. The LOAEL (rat [16]; [44]) was greater than 30 mg/kg/day, the NOAEL (rat [16]; [44]) was no less than 30 mg/kg/day and the LEL (rat [16]; [45]) was 3 mg/kg/day. It also gave an NEL (rat [16]; [45]) of less than 3 mg/kg/day, an LEL (rat [17]; [46]) of 15 ppm and an LOAEL (rat [17]; [46]) greater than 15 ppm. It also gave an NEL (rat [17]; [46]) of 5 ppm, an NOAEL (rat [17]; [46]) of no less than 15 ppm and an LEL (rat [17]; [47]) of 5 ppm. It also gave an LOAEL (rat [17]; [47]) greater than 15 ppm, an NEL (rat [17]; [47]) of less than 5 ppm and an NOAEL (rat [17]; [47]) of no less than 15 ppm. For the same compound, the LEL (rat [18]; [48]) was 0.00147 mg/kg/day, the NEL (rat [18]; [48]) was less than 0.00147 mg/kg/day and the LOAEL (rat [18]; [49]) was greater than 0.059 mg/kg/day. The NOAEL (rat [18]; [49]) was no less than 0.059 mg/kg/day, the LEL (rat [19]; [50]) was 8 mg/kg/day and the NEL (rat [19]; [50]) was less than 8 mg/kg/day. It also gave an NOAEL (rat [19]; systemic / pathology microscopic / kidney / regeneration + systemic / clinical chemistry / [other] / [other] + systemic / clinical chemistry…) of 32 mg/kg/day and an LOAEL (rat [19]; systemic / pathology microscopic / kidney / regeneration + systemic / organ weight / kidney / absolute + systemic / in life observation / …) of 63 mg/kg/day.
With `CC(C)(C)OOC(=O)c1ccccc1` [tert-Butyl perbenzoate] the LEL (rat [20]; [51]) was 30 mg/kg/day, the NEL (rat [20]; [51]) was less than 30 mg/kg/day and the LOAEL (rat [20]; systemic / pathology microscopic / stomach / hyperplasia + systemic / pathology microscopic / stomach / inflammation) was 250 mg/kg/day. It also gave an NOAEL (rat [20]; systemic / pathology microscopic / stomach / hyperplasia + systemic / pathology microscopic / stomach / inflammation + systemic / in life …) of 125 mg/kg/day, an LOAEL (mouse [21]; [52]) greater than 1110 mg/kg/day and an NEL (mouse [21]; [52]) of 140 mg/kg/day. The NOAEL (mouse [21]; [52]) was no less than 1110 mg/kg/day, the LEL (mouse [21]; systemic / pathology microscopic / stomach / hyperplasia + systemic / organ weight / stomach / nos) was 278 mg/kg/day and the LEL (mouse [22]; [51]) was 60 mg/kg/day. It also gave an LOAEL (mouse [22]; [51]) of 60 mg/kg/day, an NEL (mouse [22]; [53]) of 30 mg/kg/day and an NOAEL (mouse [22]; [53]) of 30 mg/kg/day.
